Assay results as given in ChEMBL document CHEMBL3879881, “Substituted pyrazolyl compounds for the treatment of inflammation” (2005).

Molecular target: T1, Inhibitor of nuclear factor kappa-B kinase subunit beta (Homo sapiens, UniProt O14920)
T1 sequence (O14920 whole entry): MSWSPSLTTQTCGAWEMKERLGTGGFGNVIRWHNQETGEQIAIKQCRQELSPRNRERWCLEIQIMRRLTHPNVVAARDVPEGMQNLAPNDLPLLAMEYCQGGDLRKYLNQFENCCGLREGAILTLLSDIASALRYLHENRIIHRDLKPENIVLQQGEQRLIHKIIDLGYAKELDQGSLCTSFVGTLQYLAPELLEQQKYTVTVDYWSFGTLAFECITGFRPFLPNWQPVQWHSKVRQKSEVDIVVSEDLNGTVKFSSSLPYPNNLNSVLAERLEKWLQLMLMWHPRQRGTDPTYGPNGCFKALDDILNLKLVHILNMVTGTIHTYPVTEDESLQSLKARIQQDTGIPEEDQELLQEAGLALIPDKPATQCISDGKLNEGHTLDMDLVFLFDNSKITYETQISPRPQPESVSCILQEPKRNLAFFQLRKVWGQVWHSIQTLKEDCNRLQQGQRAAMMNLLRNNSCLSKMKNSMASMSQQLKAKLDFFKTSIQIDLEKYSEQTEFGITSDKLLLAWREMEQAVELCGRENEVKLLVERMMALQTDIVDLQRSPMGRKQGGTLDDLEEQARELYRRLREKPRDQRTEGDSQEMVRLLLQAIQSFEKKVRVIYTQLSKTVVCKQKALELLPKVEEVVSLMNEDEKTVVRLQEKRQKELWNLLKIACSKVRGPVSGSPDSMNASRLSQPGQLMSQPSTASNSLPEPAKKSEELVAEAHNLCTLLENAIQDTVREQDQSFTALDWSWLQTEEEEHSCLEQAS
Assay: Inhibition of human recombinant C-terminal FLAG-epitope-tagged IKK2 expressed in baculovirus using biotinylated IkappaBalpha peptide as substrate assessed as decrease in [gamma-33P]-ATP incorporation in substrate after 30 mins by scintillation counting method

In the case of `CCC(=O)Nc1ccc2c(c1)-c1c(c(C(N)=O)nn1-c1ccc(S(N)(=O)=O)cc1)CC2`, the IC50 is reported as 1 to 10 µM.
Compound `CC(C)CNc1ccc2c(c1)-c1c(c(C(N)=O)nn1-c1ccc(S(N)(=O)=O)cc1)CC2` has an IC50 of 10 to 100 µM.
`NC(=O)c1nn(-c2ccc(S(N)(=O)=O)cc2)c2c1CCc1ccc(NC(=O)C3CC3)cc1-2` was tested, and the IC50 was 1 to 10 µM.
`NC(=O)c1nn(-c2ccc(S(N)(=O)=O)cc2)c2c1CCc1ccc(NS(=O)(=O)c3ccc(F)cc3F)cc1-2` was tested, and the IC50 was 10 to 100 µM.
With `CS(=O)(=O)Nc1ccc2c(c1)-c1c(c(C(N)=O)nn1-c1ccc(S(N)(=O)=O)cc1)CC2` the IC50 was ≤ 1 µM.
Compound `NC(=O)c1nn(-c2ccc(S(N)(=O)=O)cc2)c2c1CCc1ccc(NC(=O)C3CCC3)cc1-2` has an IC50 of 1 to 10 µM.
`NC(=O)c1nn(-c2ccc(S(N)(=O)=O)cc2)c2c1CCc1ccc(NS(=O)(=O)c3ccc(F)cc3)cc1-2` showed an IC50 of 1 to 10 µM.
`NC(=O)c1nn(-c2ccc(S(N)(=O)=O)cc2)c2c1CCc1ccc(NC(=O)Cc3ccccc3)cc1-2` showed an IC50 of 1 to 10 µM.
`Cc1ccc(CNc2ccc3c(c2)-c2c(c(C(N)=O)nn2-c2ccc(S(N)(=O)=O)cc2)CC3)cc1` gave an IC50 of 10 to 100 µM.
`NC(=O)c1nn(-c2ccc(S(N)(=O)=O)cc2)c2c1CCc1ccc(NS(=O)(=O)c3cc(C(F)(F)F)cc(C(F)(F)F)c3)cc1-2` was tested, and the IC50 was 1 to 10 µM.
`NC(=O)c1nn(-c2ccc(S(N)(=O)=O)cc2)c2c1CCc1ccc(NS(=O)(=O)c3ccc(-c4ccccn4)s3)cc1-2` gave an IC50 of 10 to 100 µM.
Work on `COc1ccc(CNc2ccc3c(c2)-c2c(c(C(N)=O)nn2-c2ccc(S(N)(=O)=O)cc2)CC3)cc1` yielded an IC50 of 1 to 10 µM.
In the case of `CC(=O)Nc1ccc2c(c1)-c1c(c(C(N)=O)nn1-c1ccc(S(N)(=O)=O)cc1)CC2`, the IC50 is reported as 10 to 100 µM.
Work on `Cn1cnc(S(=O)(=O)Nc2ccc3c(c2)-c2c(c(C(N)=O)nn2-c2ccc(S(N)(=O)=O)cc2)CC3)c1` yielded an IC50 of 10 to 100 µM.
With `NC(=O)c1nn(-c2ccc(S(N)(=O)=O)cc2)c2c1CCc1ccc(N)cc1-2` the IC50 was ≤ 1 µM.
`COc1ccc(S(=O)(=O)Nc2ccc3c(c2)-c2c(c(C(N)=O)nn2-c2ccc(S(N)(=O)=O)cc2)CC3)cc1OC` gave an IC50 of 10 to 100 µM.
For `NC(=O)c1nn(-c2ccc(S(N)(=O)=O)cc2)c2c1CCc1ccc(NS(=O)(=O)c3ccccc3)cc1-2`, the IC50 was 1 to 10 µM.
In the case of `CC(C)S(=O)(=O)Nc1ccc2c(c1)-c1c(c(C(N)=O)nn1-c1ccc(S(N)(=O)=O)cc1)CC2`, the IC50 is reported as 1 to 10 µM.
Compound `CC(C)C(=O)Nc1ccc2c(c1)-c1c(c(C(N)=O)nn1-c1ccc(S(N)(=O)=O)cc1)CC2` has an IC50 of 1 to 10 µM.
In the case of `CCCS(=O)(=O)Nc1ccc2c(c1)-c1c(c(C(N)=O)nn1-c1ccc(S(N)(=O)=O)cc1)CC2`, the IC50 is reported as 1 to 10 µM.
`NC(=O)c1nn(-c2ccc(S(N)(=O)=O)cc2)c2c1CCc1ccc(NS(=O)(=O)c3cccc4ccccc34)cc1-2` was tested, and the IC50 was 10 to 100 µM.
`COCC(=O)Nc1ccc2c(c1)-c1c(c(C(N)=O)nn1-c1ccc(S(N)(=O)=O)cc1)CC2` showed an IC50 of 1 to 10 µM.
With `NC(=O)c1nn(-c2ccc(S(N)(=O)=O)cc2)c2c1CCc1ccc(NS(=O)(=O)c3ccc(Cl)c(Cl)c3)cc1-2` the IC50 was 1 to 10 µM.
In the case of `COc1ccc(C(=O)Nc2ccc3c(c2)-c2c(c(C(N)=O)nn2-c2ccc(S(N)(=O)=O)cc2)CC3)cc1`, the IC50 is reported as ≤ 1 µM.
`NC(=O)c1nn(-c2ccc(S(N)(=O)=O)cc2)c2c1CCc1ccc(NS(=O)(=O)c3cc(Cl)ccc3Cl)cc1-2` gave an IC50 of 1 to 10 µM.
Compound `NC(=O)c1nn(-c2ccc(S(N)(=O)=O)cc2)c2c1CCc1ccc(NC(=O)c3ccco3)cc1-2` has an IC50 of 10 to 100 µM.
In the case of `NC(=O)c1nn(-c2ccc(S(N)(=O)=O)cc2)c2c1CCc1ccc(NC(=O)c3ccccc3)cc1-2`, the IC50 is reported as 1 to 10 µM.
In the case of `NC(=O)c1nn(-c2ccc(S(N)(=O)=O)cc2)c2c1CCc1ccc(NC(=O)c3ccc(C(F)(F)F)cc3)cc1-2`, the IC50 is reported as 1 to 10 µM.
`CCNC(=O)Nc1ccc2c(c1)-c1c(c(C(N)=O)nn1-c1ccc(S(N)(=O)=O)cc1)CC2` showed an IC50 of 1 to 10 µM.
Compound `C[C@H](N)C(=O)Nc1ccc2c(c1)-c1c(c(C(N)=O)nn1-c1ccc(S(N)(=O)=O)cc1)CC2` has an IC50 of 1 to 10 µM.
`NC(=O)c1nn(-c2ccc(S(N)(=O)=O)cc2)c2c1CCc1ccc(NC(=O)C34CC5CC(CC(C5)C3)C4)cc1-2` was tested, and the IC50 was 1 to 10 µM.
With `NC(=O)c1nn(-c2ccc(S(N)(=O)=O)cc2)c2c1CCc1ccc(NS(=O)(=O)c3ccc(Br)cc3F)cc1-2` the IC50 was 1 to 10 µM.
With `NC(=O)c1nn(-c2ccc(S(N)(=O)=O)cc2)c2c1CCc1ccc(NS(=O)(=O)c3ccc(F)c(F)c3)cc1-2` the IC50 was 10 to 100 µM.
`NC(=O)c1nn(-c2ccc(S(N)(=O)=O)cc2)c2c1CCc1ccc(NS(=O)(=O)CC(F)(F)F)cc1-2` gave an IC50 of 1 to 10 µM.
`CN(C)c1cccc2c(S(=O)(=O)Nc3ccc4c(c3)-c3c(c(C(N)=O)nn3-c3ccc(S(N)(=O)=O)cc3)CC4)cccc12` showed an IC50 of 1 to 10 µM.
`NC(=O)c1nn(-c2ccc(S(N)(=O)=O)cc2)c2c1CCc1ccc(NC(=O)C3CCCC3)cc1-2` was tested, and the IC50 was 1 to 10 µM.
In the case of `C[C@@H](N)C(=O)Nc1ccc2c(c1)-c1c(c(C(N)=O)nn1-c1ccc(S(N)(=O)=O)cc1)CC2`, the IC50 is reported as 1 to 10 µM.
For `CCS(=O)(=O)Nc1ccc2c(c1)-c1c(c(C(N)=O)nn1-c1ccc(S(N)(=O)=O)cc1)CC2`, the IC50 was ≤ 1 µM.
In the case of `Cc1ccc(S(=O)(=O)Nc2ccc3c(c2)-c2c(c(C(N)=O)nn2-c2ccc(S(N)(=O)=O)cc2)CC3)cc1`, the IC50 is reported as 10 to 100 µM.
`NC(=O)c1nn(-c2ccc(S(N)(=O)=O)cc2)c2c1CCc1ccc(NC(=O)c3cccs3)cc1-2` showed an IC50 of 10 to 100 µM.
Compound `CCCC(=O)Nc1ccc2c(c1)-c1c(c(C(N)=O)nn1-c1ccc(S(N)(=O)=O)cc1)CC2` has an IC50 of 1 to 10 µM.
In the case of `NC(=O)c1nn(-c2ccc(S(N)(=O)=O)cc2)c2c1CCc1ccc(NS(=O)(=O)C(F)(F)F)cc1-2`, the IC50 is reported as 10 to 100 µM.
For `NC(=O)c1nn(-c2ccc(S(N)(=O)=O)cc2)c2c1CCc1ccc(NS(=O)(=O)c3cccc4cnccc34)cc1-2`, the IC50 was 1 to 10 µM.
With `NC(=O)c1nn(-c2ccc(S(N)(=O)=O)cc2)c2c1CCc1ccc(NC(=O)C3CCCCC3)cc1-2` the IC50 was 1 to 10 µM.
In the case of `NC(=O)c1nn(-c2ccc(S(N)(=O)=O)cc2)c2c1CCc1ccc(NS(=O)(=O)c3ccc4cccnc4c3)cc1-2`, the IC50 is reported as > 100 µM.
With `NC(=O)c1nn(-c2ccc(S(N)(=O)=O)cc2)c2c1CCc1ccc(NS(=O)(=O)c3cc(Cl)c(Cl)cc3Cl)cc1-2` the IC50 was 1 to 10 µM.
In the case of `COc1ccc(S(=O)(=O)Nc2ccc3c(c2)-c2c(c(C(N)=O)nn2-c2ccc(S(N)(=O)=O)cc2)CC3)cc1`, the IC50 is reported as 10 to 100 µM.
With `NC(=O)c1nn(-c2ccc(S(N)(=O)=O)cc2)c2c1CCc1ccc(NC(=O)c3ccncc3)cc1-2` the IC50 was ≤ 1 µM.
Work on `NC(=O)c1nn(-c2ccc(S(N)(=O)=O)cc2)c2c1CCc1ccc(NS(=O)(=O)c3cccc4nonc34)cc1-2` yielded an IC50 of 1 to 10 µM.
In the case of `NC(=O)c1nn(-c2ccc(S(N)(=O)=O)cc2)c2c1CCc1ccc([N+](=O)[O-])cc1-2`, the IC50 is reported as > 100 µM.
`NC(=O)c1nn(-c2ccc(S(N)(=O)=O)cc2)c2c1CCc1ccc(NS(=O)(=O)c3ccc(-c4ccccc4)cc3)cc1-2` was tested, and the IC50 was 1 to 10 µM.
In the case of `NC(=O)c1nn(-c2ccc(S(N)(=O)=O)cc2)c2c1CCc1ccc(NS(=O)(=O)Cc3ccccc3)cc1-2`, the IC50 is reported as 1 to 10 µM.
With `NC(=O)c1nn(-c2ccc(S(N)(=O)=O)cc2)c2c1CCc1ccc(NS(=O)(=O)c3ccc(Cl)cc3)cc1-2` the IC50 was 1 to 10 µM.
Compound `COc1ccc(C(=O)Nc2ccc3c(c2)-c2c(c(C(N)=O)nn2-c2ccc(S(N)(=O)=O)cc2)CC3)cc1OC` has an IC50 of 1 to 10 µM.
Compound `CCCCC(=O)Nc1ccc2c(c1)-c1c(c(C(N)=O)nn1-c1ccc(S(N)(=O)=O)cc1)CC2` has an IC50 of 1 to 10 µM.
`CCCCS(=O)(=O)Nc1ccc2c(c1)-c1c(c(C(N)=O)nn1-c1ccc(S(N)(=O)=O)cc1)CC2` was tested, and the IC50 was 1 to 10 µM.
Work on `NC(=O)c1nn(-c2ccc(S(N)(=O)=O)cc2)c2c1CCc1ccc(NS(=O)(=O)c3ccc(Br)cc3)cc1-2` yielded an IC50 of 1 to 10 µM.
With `NC(=O)c1nn(-c2ccc(S(N)(=O)=O)cc2)c2c1CCc1ccc(NC(=O)c3ccc(Cl)cc3)cc1-2` the IC50 was ≤ 1 µM.
`Cc1nc(S(=O)(=O)Nc2ccc3c(c2)-c2c(c(C(N)=O)nn2-c2ccc(S(N)(=O)=O)cc2)CC3)cn1C` was tested, and the IC50 was 10 to 100 µM.
Compound `NC(=O)c1nn(-c2ccc(S(N)(=O)=O)cc2)c2c1CCc1ccc(NS(=O)(=O)c3cccc(C(F)(F)F)c3)cc1-2` has an IC50 of 10 to 100 µM.
For `NC(=O)c1nn(-c2ccc(S(N)(=O)=O)cc2)c2c1CCc1ccc(NC(=O)c3ccc(F)cc3)cc1-2`, the IC50 was ≤ 1 µM.
`NC(=O)c1nn(-c2ccc(S(N)(=O)=O)cc2)c2c1CCc1ccc(NCc3ccccc3)cc1-2` showed an IC50 of 1 to 10 µM.
In the case of `NC(=O)c1nn(-c2ccc(S(N)(=O)=O)cc2)c2c1CCc1ccc(NC(=O)Nc3ccccc3)cc1-2`, the IC50 is reported as 1 to 10 µM.
For `NC(=O)c1nn(-c2ccc(S(N)(=O)=O)cc2)c2c1CCc1ccc(NC(=O)c3cccc(C(F)(F)F)c3)cc1-2`, the IC50 was 1 to 10 µM.
With `Cc1cccc(C(=O)Nc2ccc3c(c2)-c2c(c(C(N)=O)nn2-c2ccc(S(N)(=O)=O)cc2)CC3)c1` the IC50 was ≤ 1 µM.
Compound `CC(=O)Nc1nc(C)c(S(=O)(=O)Nc2ccc3c(c2)-c2c(c(C(N)=O)nn2-c2ccc(S(N)(=O)=O)cc2)CC3)s1` has an IC50 of 1 to 10 µM.
`CN(C)S(=O)(=O)c1ccc(-n2nc(C(N)=O)c3c2-c2cc(N)ccc2CC3)cc1` was tested, and the IC50 was 1 to 10 µM.
`NC(=O)c1nn(-c2ccc(S(N)(=O)=O)cc2)c2c1CCc1ccc(NS(=O)(=O)c3ccc(Cl)cc3Cl)cc1-2` gave an IC50 of 1 to 10 µM.
`C=CCN(CC=C)S(=O)(=O)c1ccc(-n2nc(C(N)=O)c3c2-c2cc(N)ccc2CC3)cc1` showed an IC50 of 1 to 10 µM.
With `NC(=O)c1nn(-c2ccc(S(N)(=O)=O)cc2)c2c1CCc1ccc(NCc3ccc(Cl)cc3)cc1-2` the IC50 was 10 to 100 µM.
